# Source: US8211654B2, “High-throughput assay for sugar-mediated drug transport” (Wisconsin Alumni Research Foundation, priority 2008, dated 2012)
# What was measured:
# GLUT3 = target: T1, GLUT3 (Homo sapiens, UniProt P11169); settings: literature; cited from earlier work
# T1 construct: host or cells: Xenopus oocytes mainly; also COS-7, CHO, yeast variants (not tied to single values)
# T1 sequence (P11169 1-496): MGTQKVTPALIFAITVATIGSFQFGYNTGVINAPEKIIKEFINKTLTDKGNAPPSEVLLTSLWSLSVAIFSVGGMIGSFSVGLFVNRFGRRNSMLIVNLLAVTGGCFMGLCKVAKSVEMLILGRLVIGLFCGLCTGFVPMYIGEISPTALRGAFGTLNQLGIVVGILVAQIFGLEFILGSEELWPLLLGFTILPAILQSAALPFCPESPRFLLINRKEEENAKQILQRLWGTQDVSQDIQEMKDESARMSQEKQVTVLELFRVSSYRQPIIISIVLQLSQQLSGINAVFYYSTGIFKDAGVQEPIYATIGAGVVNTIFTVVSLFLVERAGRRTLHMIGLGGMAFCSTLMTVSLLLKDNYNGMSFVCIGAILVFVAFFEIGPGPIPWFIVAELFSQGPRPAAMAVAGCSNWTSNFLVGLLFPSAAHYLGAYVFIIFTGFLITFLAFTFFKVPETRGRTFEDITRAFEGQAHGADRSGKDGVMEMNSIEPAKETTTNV
# GLUT7 = target: T2, GLUT7 (Homo sapiens, UniProt Q6PXP3); settings: literature; cited from earlier work
# T2 construct: host or cells: Xenopus oocytes mainly; also COS-7, CHO, yeast variants (not tied to single values)
# T2 sequence (Q6PXP3 1-512): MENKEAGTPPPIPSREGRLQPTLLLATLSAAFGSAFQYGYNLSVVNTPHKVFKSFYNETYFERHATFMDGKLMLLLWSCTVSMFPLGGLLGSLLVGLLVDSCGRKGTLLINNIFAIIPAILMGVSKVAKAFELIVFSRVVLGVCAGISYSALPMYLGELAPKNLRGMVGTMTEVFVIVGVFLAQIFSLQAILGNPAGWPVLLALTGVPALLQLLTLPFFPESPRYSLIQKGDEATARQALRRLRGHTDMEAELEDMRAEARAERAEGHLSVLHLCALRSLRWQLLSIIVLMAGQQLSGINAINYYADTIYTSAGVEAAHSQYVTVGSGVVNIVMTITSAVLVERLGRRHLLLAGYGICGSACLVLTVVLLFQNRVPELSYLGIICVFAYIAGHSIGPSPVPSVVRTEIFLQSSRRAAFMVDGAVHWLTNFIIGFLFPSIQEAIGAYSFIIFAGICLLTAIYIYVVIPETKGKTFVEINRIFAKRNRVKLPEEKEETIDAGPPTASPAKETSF
# GLUT9 = target: T3, GLUT9 (Homo sapiens, UniProt Q9NRM0); settings: literature; cited from earlier work
# T3 construct: host or cells: Xenopus oocytes mainly; also COS-7, CHO, yeast variants (not tied to single values)
# T3 sequence (Q9NRM0 1-540): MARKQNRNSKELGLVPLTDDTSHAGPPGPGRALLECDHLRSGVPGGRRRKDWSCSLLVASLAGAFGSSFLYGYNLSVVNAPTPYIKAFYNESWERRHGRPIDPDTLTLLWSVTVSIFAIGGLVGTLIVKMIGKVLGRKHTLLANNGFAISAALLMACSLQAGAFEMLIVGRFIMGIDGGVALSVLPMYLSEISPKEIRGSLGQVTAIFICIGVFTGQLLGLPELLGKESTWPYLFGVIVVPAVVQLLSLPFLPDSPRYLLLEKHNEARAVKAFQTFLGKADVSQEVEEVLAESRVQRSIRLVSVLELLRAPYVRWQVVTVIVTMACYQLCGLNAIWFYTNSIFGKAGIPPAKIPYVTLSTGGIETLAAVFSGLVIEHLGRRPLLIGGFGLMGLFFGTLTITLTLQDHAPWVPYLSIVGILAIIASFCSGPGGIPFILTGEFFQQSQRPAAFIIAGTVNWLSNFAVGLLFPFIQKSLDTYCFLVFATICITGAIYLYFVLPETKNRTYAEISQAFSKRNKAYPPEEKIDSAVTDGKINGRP
# GLUT5 = target: T4, GLUT5 (Homo sapiens, UniProt P22732); settings: literature; cited from earlier work
# T4 construct: host or cells: Xenopus oocytes mainly; also COS-7, CHO, yeast variants (not tied to single values)
# T4 sequence (P22732 1-501): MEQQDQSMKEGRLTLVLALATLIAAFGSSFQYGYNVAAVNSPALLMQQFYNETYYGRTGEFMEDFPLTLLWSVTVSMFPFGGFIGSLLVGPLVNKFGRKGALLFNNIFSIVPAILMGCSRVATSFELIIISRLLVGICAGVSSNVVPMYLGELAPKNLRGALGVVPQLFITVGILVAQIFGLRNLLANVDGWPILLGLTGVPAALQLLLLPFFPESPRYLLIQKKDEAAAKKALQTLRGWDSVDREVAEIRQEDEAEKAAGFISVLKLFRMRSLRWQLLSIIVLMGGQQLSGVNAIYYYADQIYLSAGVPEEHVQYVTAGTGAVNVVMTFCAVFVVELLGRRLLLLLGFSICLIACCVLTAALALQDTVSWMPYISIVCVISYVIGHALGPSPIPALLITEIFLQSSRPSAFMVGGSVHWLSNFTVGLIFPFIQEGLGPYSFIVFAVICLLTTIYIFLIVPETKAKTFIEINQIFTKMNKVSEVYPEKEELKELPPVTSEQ
# GLUT11 = target: T5, GLUT11 (Homo sapiens, UniProt Q9BYW1); settings: literature; cited from earlier work
# T5 construct: host or cells: Xenopus oocytes mainly; also COS-7, CHO, yeast variants (not tied to single values)
# T5 sequence (Q9BYW1 1-496): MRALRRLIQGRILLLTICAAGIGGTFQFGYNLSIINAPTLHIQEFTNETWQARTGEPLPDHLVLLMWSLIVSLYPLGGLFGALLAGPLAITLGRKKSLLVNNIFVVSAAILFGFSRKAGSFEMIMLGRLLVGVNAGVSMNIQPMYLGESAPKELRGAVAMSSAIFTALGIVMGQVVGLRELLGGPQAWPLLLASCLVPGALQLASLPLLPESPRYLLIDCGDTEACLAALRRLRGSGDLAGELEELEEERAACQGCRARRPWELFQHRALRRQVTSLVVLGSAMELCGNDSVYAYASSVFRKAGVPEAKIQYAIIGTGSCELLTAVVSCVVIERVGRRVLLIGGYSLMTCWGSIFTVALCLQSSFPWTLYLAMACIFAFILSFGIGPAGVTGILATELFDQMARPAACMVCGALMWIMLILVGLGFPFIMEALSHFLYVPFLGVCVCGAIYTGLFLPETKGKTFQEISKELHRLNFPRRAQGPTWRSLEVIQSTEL
# GLUT2 = target: T6, GLUT2 (Homo sapiens, UniProt P11168); settings: literature; cited from earlier work
# T6 construct: host or cells: Xenopus oocytes mainly; also COS-7, CHO, yeast variants (not tied to single values)
# T6 sequence (P11168 1-524): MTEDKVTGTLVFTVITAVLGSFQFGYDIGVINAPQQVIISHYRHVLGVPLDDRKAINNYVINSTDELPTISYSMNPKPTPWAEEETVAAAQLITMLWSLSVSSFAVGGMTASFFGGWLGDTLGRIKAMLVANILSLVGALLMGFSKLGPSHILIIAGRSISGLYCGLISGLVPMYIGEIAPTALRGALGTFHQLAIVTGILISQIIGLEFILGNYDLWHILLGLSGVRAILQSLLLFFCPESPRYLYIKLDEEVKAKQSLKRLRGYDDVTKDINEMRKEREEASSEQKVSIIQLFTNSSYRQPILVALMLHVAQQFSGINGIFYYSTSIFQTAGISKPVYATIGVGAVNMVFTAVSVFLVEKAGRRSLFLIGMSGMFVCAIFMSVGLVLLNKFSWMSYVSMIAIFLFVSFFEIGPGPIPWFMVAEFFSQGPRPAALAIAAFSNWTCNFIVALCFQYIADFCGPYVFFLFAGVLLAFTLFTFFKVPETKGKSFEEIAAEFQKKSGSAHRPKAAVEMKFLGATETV
# [1] = compared with the parent ifosfamide; cited from earlier work
# [2] = tested on: MCF10A (immortalized breast), MCF7 (breast cancer), A549 (non-small cell lung cancer), Du145 (prostrate cancer), RWPE (immortalized prostrate); experiment: Sugar transporter assay: uptake of sugar-fluorophore conjugates by intracellular fluorescence, normalized to cell number; type: cell-based; settings: 1 hour incubation; dose range 250-0 μM; five cell lines; compared with D-glucose conjugate
# Description: FIG. 5. Representative sugar transporter assays. […] For each cell line, the dose range was 250 μM, 125 μM, 62.5 μM, 31.3 μM, 15.6 μM, 7.8 μM, 3.9 μM and 0 μM. The average error (40 compounds, 5 cell lines) was 8.3%.
# For the sugar transporter assay of the present invention, cells were plated at a density of 30,000 cells/ml (100 μL/well) in a 96-well clear bottom microtiter plates. Cells were allowed to attach overnight, and then incubated in glucose-free medium for an additional 24 hours. Compounds were added (from 96-well compound stock plates at a 1:100 dilution) using a Biomek FX liquid handler equipped with a 96 channel head. The plates were incubated for 1 hour and then the compound solution was removed by gentle aspiration. The cells were subsequently washed (1×100 μL) with phosphate buffered saline to remove residual fluorescent dye.
# Sugar-conjugate uptake was assessed via intracellular fluorescence (FIG. 4b-4f) as determined using a Safire2™ multi-mode microplate reader (δex=485 nm, δem=535 nm) and normalized to cell number by a subsequent CellTiter-Glo® luminescent cell viability assay. […] The CellTiter-Glo® luminescent cell viability assay was analyzed on a Safire2™ multi-mode microplate reader for luminescence at 1 second per well. As an initial preliminary study, the transport assay with a representative set of probes was also analyzed using microscopy (FIG. 6).
molecule,measurement,setting,value
O=CC[C@@H](O)[C@H](O)[C@H](O)CO [2-deoxyglucose],affinity for GLUT3,GLUT3,approximately 1.5 mM
same,transport by GLUT7,GLUT7,does not transport
same,transport by GLUT9,GLUT9,transport
O=C(CO)[C@@H](O)[C@H](O)[C@H](O)CO [fructose],affinity for GLUT5,GLUT5,approximately 1 mM
same,transport by GLUT11,GLUT11,provides for transport
O=C[C@H](O)[C@@H](O)[C@@H](O)[C@H](O)CO [galactose],transport by GLUT7,GLUT7,does not transport
same,transport by GLUT11,GLUT11,not galactose
N[C@H]1C(O)O[C@H](CO)[C@@H](O)[C@@H]1O (stereo partly drawn) [glucosamine],affinity for GLUT2,GLUT2,approximately 1 mM
O=P(NCCCl)(NCCCl)O[C@@H]1O[C@H](CO)[C@@H](O)[C@H](O)[C@H]1O [glufosfamide],antitumor activity,[1],higher antitumor activity
same,myelotoxicity,[1],lower myelotoxicity
O=C[C@H](O)[C@@H](O)[C@H](O)CO [xylose],transport by GLUT7,GLUT7,does not transport
aminofluoroscein [parent 11],sugar-conjugate uptake (intracellular fluorescence normalized to cell number),[2],No uptake
